Assay results as given in patent US9421220B2, “Anti-cancer composition comprising alginate” (THE UNIVERSITY OF BIRMINGHAM EDGBASTON, priority 2009, dated 2016).

Assays:
Apc^Min/+ mouse = assay: Tumour burden in Apc^Min/+ mice; assay type: in vivo; conditions: for effect on tumour number, size or tumour burden compared to control mice: Apc^Min/+ mice fed control diet, sub-cutaneous injection
Method: To delineate how iron mediates colorectal carcinogenesis in-vivo, further experiments were carried out using the ‘Apc^Min/+’ mouse. These mice carry a mutation which disrupts the ability of the APC tumour suppressor to bind and turnover b-catenin, and the mice develop 100's of benign adenomas.
Apc^Min/+ mice were fed a standard control diet (n=17) or an iron deficient diet (n=11) immediately post weaning with tumour burden being assessed at 80 days of age. In addition mice were fed a high iron diet (standard control diet supplemented with 2% reduced pentacarbonyl iron (Harlan UK)) (n=6) but in these animals tumour burden was assessed at 45 days of age. A fourth group of Apc^Min/+ mice (n=9), were fed the standard control diet but upon reaching 50 days of age were injected sub-cutaneously with iron dextran (50 mgs) with tumour burden being assessed at 85 days of age. A fifth group of Apc^Min/+ mice (n=9), were fed the standard control diet and post weaning were injected daily sub-cutaneously with the systemic iron chelator desferioxamine (200 mgs/kg).

[1] = test system: cells containing a mutant APC protein; conditions: cells deficient in the APC protein exposed to iron; cited from earlier work
[2] = test system: normal human colonic cells; conditions: normal cells exposed to increased levels of iron; cited from earlier work

Row | Molecule | effect on tumour number, size or tumour burden compared to control mice (Apc^Min/+ mouse) | cellular viability and proliferation [1] | phenotypic effects [2] | tumour burden (Apc^Min/+ mouse; Apc^Min/+ mice on iron deficient diet co-administered with iron dextran)
1 | CC(=O)N(O)CCCCCNC(=O)CCC(=O)N(O)CCCCCNC(=O)CCC(=O)N(O)CCCCCN [desferioxamine] | no effect | – | – | –
2 | [Fe] [iron] | – | increased | no phenotypic effects | –
3 | iron dextran | no effect | – | – | suppression
